Where a name gives a salt, the structure may show the parent alone. Read-outs that look alike come from different tables or passages of the source.
What was measured:
HepG2 cells [1] = conditions: cited from earlier work
HepG2 cells [2] = test: cells; conditions: Homo sapiens; for IC50: HepG2, read-out: MMP assays IC50 (µM) HepG2; for Emax: HepG2, read-out: MMP assays efficacy (%) HepG2
rat primary hepatocytes [3] = test: MMP assay in rat primary hepatocytes; conditions: for IC50: read-out: MMP assays IC50 (µM) Rat Hepatocytes
rat primary hepatocytes [4] = tested on: rat primary hepatocytes
[5] = read-out: MMP assays IC50 (µM) qHTS-HepG2
[6] = read-out: MMP assays IC50 (µM), qHTS-HepG2

| Structure (SMILES) | MMP assays efficacy (%) qHTS-HepG2 (HepG2 cells [1]) | IC50 (HepG2 cells [1]; [5]) | IC50 (HepG2 cells [2]) | Emax (HepG2 cells [2]) | IC50 (rat primary hepatocytes [3]; Rattus norvegicus, Hepatocyte) | MMP assays efficacy (%) Rat Hepatocytes (rat primary hepatocytes [4]) | IC50 (HepG2 cells [1]; [6]) | MMP assays IC50 (µM) Rat Hepatocytes (rat primary hepatocytes [3]) | IC50 (rat primary hepatocytes [3]) |
| --- | --- | --- | --- | --- | --- | --- | --- | --- | --- |
| Oc1cc(Cl)cc(Cl)c1Cl [2,3,5-Trichlorophenol] | -99±7% | 5.8 ± 1.05 µM | 6.31 µM | 114% | 27.7 ± 10.4 µM | -77±25% | – | – | – |
| C[C@@H]1O[C@@H](O[C@@H]2C=C3CC[C@@H]4[C@H](CC[C@]5(C)[C@@H](c6ccc(=O)oc6)CC[C@]45O)[C@@]3(C)CC2)[C@H](O)[C@H](O)[C@H]1O [Proscillaridin] | -72±4% | – | 0.066 µM | 86% | – | inactive | 0.09 ± 0.02 µM | inactive | – |
| COC(=O)N(OC)c1ccccc1COc1ccn(-c2ccc(Cl)cc2)n1 [Pyraclostrobin] | -116±2% | – | 1.26 µM | 118% | 9.04 ± 1.89 µM | -121±32% | 6.35 ± 1.92 µM | – | – |
| COc1cc(/C=C/C(=O)CC(=O)/C=C/c2ccc(O)c(OC)c2)ccc1O [Curcumin] | -103±16% | 1.31 ± 1.03 µM | 2.51 µM | 96% | 11.6 ± 9.87 µM | -116±37% | – | – | – |
| CC(C)[C@@H](Nc1ccc(C(F)(F)F)cc1Cl)C(=O)OC(C#N)c1cccc(Oc2ccccc2)c1 (stereo partly shown) [tau-Fluvalinate] | – | – | 31.6 µM | 58% | – | inactive | 37.2 ± 15.1 µM | inactive | – |
| O=c1c(-c2ccc(O)cc2)coc2cc(O)cc(O)c12 [Genistein] | -101±1% | – | 10 µM | 96% | 33.7 ± 19.5 µM | -70±41% | 6.34 ± 0.77 µM | – | – |
| O=C1C2(Cl)C3(Cl)C4(Cl)C(Cl)(Cl)C5(Cl)C3(Cl)C1(Cl)C5(Cl)C24Cl (stereo not shown) [Kepone] | -101±8% | – | 2.82 µM | 99% | 10.2 ± 9.25 µM | -107±26% | 0.93 ± 0.65 µM | – | – |
| CN(C)C(=S)SSC(=S)N(C)C [THIRAM] | -57±29% | – | 24.5 µM | 66% | 16.5 ± 20.3 µM | -96±85% | – | – | – |
| CCCCC(=O)O[C@]1(C(=O)CO)[C@H](C)C[C@H]2[C@@H]3CCC4=CC(=O)C=C[C@]4(C)[C@@]3(F)[C@@H](O)C[C@@]21C [Dexamethasone valerate] | -74±6% | 12.1 ± 4.39 µM | 17.3 µM | 114% | 23.5 ± 5.67 µM | -66±25% | – | – | – |
| Nc1ccc(N)cc1 [1,4-Benzenediamine] | -85±6% | 3.28 ± 0.42 µM | 2.18 µM | 71% | – | inactive | – | inactive | – |
| O=C(NC(=O)c1c(F)cccc1F)Nc1cc(Cl)c(OC(F)(F)C(F)C(F)(F)F)cc1Cl (stereo not shown) [Lufenuron] | -119±18% | – | 14.1 µM | 100% | 45 ± 7.29 µM | -103±8% | 7.65 ± 0.7 µM | – | – |
| CC1(C(=O)Nc2ccc(O)c(Cl)c2Cl)CCCCC1 [Fenhexamid] | -88±22% | 8.31 ± 1.15 µM | 17.8 µM | 98% | 36.7 ± 21.2 µM | -62±26% | – | – | – |
| O=c1c(O)c(-c2ccc(O)c(O)c2)oc2cc(O)cc(O)c12 [Quercetin] | -94±8% | – | 3.16 µM | 96% | – | -62±28% | 2.69 ± 2.26 µM | – | 15.1 ± 6.79 µM |
| Brc1ccc(Oc2ccc(Br)cc2Br)c(Br)c1 [2,2'4,4'-Tetrabromodiphenyl ether] | -119±10% | 22.6 ± 5.18 µM | 39.8 µM | 104% | 25.6 ± 34.7 µM | -42±10% | – | – | – |
| Oc1cc(Cl)cc(Cl)c1 [3,5-Dichlorophenol] | -96±8% | 9.79 µM | 11.2 µM | 113% | 46.9 ± 8.44 µM | -81±35% | – | – | – |
| CSC1=N[C@@](C)(c2ccccc2)C(=O)N1Nc1ccccc1 [Fenamidone] | -72±14% | 43.3 ± 17.1 µM | 19.9 µM | 59% | 42.8 ± 10.3 µM | -56±23% | – | – | – |
| CC(NCCC(c1ccccc1)c1ccccc1)c1ccccc1 (stereo not shown) [Fendiline hydrochloride] | -79±12% | 10.3 ± 1.55 µM | 9.75 µM | 87% | – | inactive | – | inactive | – |
| Clc1ccc(C(c2ccc(Cl)cc2)C(Cl)Cl)cc1 [p,p'-DDD] | -103±18% | – | 39.8 µM | 108% | 42.2 ± 19.8 µM | -37±12% | 15.2 ± 8.82 µM | – | – |
| Cc1cccc(N)c1N [3-Methylbenzene-1,2-diamine] | -67±14% | 21.7 ± 3.65 µM | 28.2 µM | 90% | 36.6 ± 11.8 µM | -56±11% | – | – | – |
| CC(=O)Nc1ccc2c(c1)Cc1ccccc1-2 [Compound 2-Acetylaminofluorene] | -63±5% | 36.3 ± 10.5 µM | 31.6 µM | 46% | – | inactive | – | inactive | – |
| Oc1ccc(Cl)c(Cl)c1Cl [2,3,4-Trichlorophenol] | -101±8% | 5.23 ± 1.52 µM | 7.94 µM | 101% | 41.8 ± 14.4 µM | -59±36% | – | – | – |
| O=S(=O)(c1ccc(Cl)cc1)c1ccc(Cl)cc1 [4,4'-Dichlorodiphenyl sulfone] | -99±22% | 21.3 ± 6.06 µM | 35.5 µM | 96% | 29.9 ± 2.43 µM | -72±26% | – | – | – |
| Nc1ccc(Cl)cc1N [4-Chloro-1,2-diaminobenzene] | -94±12% | 2.38 ± 1.6 µM | 2 µM | 90% | 11 ± 4.37 µM | -88±17% | – | – | – |
| CCC(=O)c1c(O)cc(O)cc1O [Flopropione] | -111±23% | – | 17.3 µM | 103% | – | inactive | 18.8 ± 6.83 µM | inactive | – |
| Oc1cc(Cl)ccc1Oc1ccc(Cl)cc1Cl [Triclosan] | -101±5% | – | 6.15 µM | 123% | 15.2 ± 13.5 µM | -58±19% | 1.5 ± 0.88 µM | – | – |
| C[C@H]1O[C@@H](O[C@H]2CC[C@@]3(C)[C@H](CC[C@@H]4[C@@H]3C[C@@H](O)[C@]3(C)[C@@H](C5=CC(=O)OC5)CC[C@]43O)C2)C[C@H](O)[C@@H]1O[C@H]1C[C@H](O)[C@H](O[C@H]2C[C@H](O)[C@H](O[C@@H]3O[C@H](CO)[C@@H](O)[C@H](O)[C@H]3O)[C@@H](C)O2)[C@@H](C)O1 [Deslanoside] | -81±14% | 1.84 ± 0.23 µM | 0.44 µM | 97% | – | inactive | – | inactive | – |

— PMC6112376, “Comprehensive Analyses and Prioritization of Tox21 10K Chemicals Affecting Mitochondrial Function by in-Depth Mechanistic Studies” (Environmental Health Perspectives, 2018)
